According to patent US4808411A, “Antibiotic-polymer compositions” (Abbott Laboratories, priority 1987, dated 1989):
In brackets after ≈: the same amount, converted by molar mass.

How the values were obtained:
[1] = Solubility of drug after stirring material providing approx. 20 mg/mL active drug for 24 hours in water (buffer for pure drugs); type: physicochemical
[2] = Bioavailability of 6-O-methylerythromycin in dogs (Example 12); type: in vivo; settings: dog, blood, po, 250 mg 6-O-methylerythromycin, fasted, histamine
Protocol: All dogs were fasted overnight, and histamine was administered one hour prior to dosing with the test composition. […] Blood samples were drawn and assayed using a standard microbiological assay. All dogs were fed 12 hours after dosing.

AUC(0-t) at 8 h [2] [ng·h/mL] | Cmax [2] [ng/mL] | Tmax [2] [h] | solubility at 24 h ([1]; pH 6.2, aqueous buffer) [µg/mL] | solubility at 24 h ([1]; pH 7, aqueous buffer) [µg/mL] | solubility at 24 h ([1]; pH 7.98, aqueous buffer) [µg/mL] | SMILES | solubility at 24 h ([1]; pH 7.72, aqueous buffer) [µg/mL] | solubility at 24 h ([1]; pH 8.24, aqueous buffer) [µg/mL]
 |  |  |  |  |  | CC[C@H]1OC(=O)[C@H](C)[C@@H](O[C@H]2C[C@@](C)(OC)[C@@H](O)[C@H](C)O2)[C@H](C)[C@@H](O[C@@H]2O[C@H](C)C[C@H](N(C)C)[C@H]2O)[C@](C)(O)C[C@@H](C)C(=O)[C@H](C)[C@@H](O)[C@]1(C)O [Erythromycin, erythromycin] | 12200 (≈ 16600 µM) | 2120 (≈ 2890 µM)
43500 | 5370 | 1.33 | 7000 (≈ 9360 µM) | 1650 (≈ 2210 µM) | 134 (≈ 179 µM) | CC[C@H]1OC(=O)[C@H](C)[C@@H](O[C@H]2C[C@@](C)(OC)[C@@H](O)[C@H](C)O2)[C@H](C)[C@@H](O[C@@H]2O[C@H](C)C[C@H](N(C)C)[C@H]2O)[C@](C)(OC)C[C@@H](C)C(=O)[C@H](C)[C@@H](O)[C@]1(C)O [6-O--Methyl-ery, 6-O-methylerythromycin] |  | 
